# Data as given in US20090238792A1, “SUPPRESSION OF POSTOPERATIVE ILEUS” (University of Pittsburgh of the Commonwealth System of …, priority 2007, published 2009).
# Columns and labels:
# [1] = tested on: rats with surgical manipulation of the intestine; assay: Rat in vivo gastrointestinal transit of fluorescein-labeled dextran (geometric center)
# Experimental: (§1) Age matched animals treated with vehicle (normal saline) or valine (263.5 mg/kg, osmotic control) at appropriate time points and at equal volumes served as controls.
# (§2) The rodent intestine was subjected to a standardized degree of surgical manipulation as described previously (14). Rats were anesthetized by isoflurane inhalation and the abdomen was opened by a midline laparotomy. The cecum was eventrated and laid out onto a moist gauze. Then, the intestine was inspected along its length and gently compressed using moist cotton applicators. The midline incision was closed by two layers of continuous sutures. All operative procedures were performed under sterile conditions with the intestine being handled only by instruments and never touched directly. Animals were killed at specific time points postoperatively by isoflurane anesthesia inhalation overdose and heart incision.
# (§3) Methods: ACI-rats (180-220 g) underwent standardized surgical manipulation of the intestine. […] Age matched animals treated with vehicle or valine (osmotic control) at appropriate time points and at equal volumes served as controls. […] Postoperative mediator mRNA expression in the intestinal muscularis was determined by real-time RT PCR. Leukocyte extravasation was investigated in muscularis whole-mounts. Nitrite production was measured in muscularis cultures. In vivo transit of FITC-dextran was measured using geometric center analysis (GC). In vitro circular muscle contractility was assessed in a standard organ bath. Statistical analysis: unpaired Student t test, p<0.05, mean±SEM.
# prostanoids = assay: Prostanoid release (ELISA) from organ cultured muscularis; format: in vivo, rat; conditions: manipulated rats, glycine 170 mg/kg or valine
# Experimental: Age matched animals treated with vehicle (normal saline) or valine (263.5 mg/kg, osmotic control) at appropriate time points and at equal volumes served as controls. The rodent intestine was subjected to a standardized degree of surgical manipulation as described previously (14). Rats were anesthetized by isoflurane inhalation and the abdomen was opened by a midline laparotomy. The cecum was eventrated and laid out onto a moist gauze. Then, the intestine was inspected along its length and gently compressed using moist cotton applicators. The midline incision was closed by two layers of continuous sutures. All operative procedures were performed under sterile conditions with the intestine being handled only by instruments and never touched directly. Animals were killed at specific time points postoperatively by isoflurane anesthesia inhalation overdose and heart incision. The synthesis of prostanoids released into the tissue culture supernatant over a period of 24 hours was assayed by ELISA. After incubation the culture median and tissue was inspected, 500 μL aliquots of supernatant were frozen in liquid nitrogen and stored at −80° C. The muscle tissue was blotted dry and weighed. Culture supernatants were assayed for the measurement of prostaglandin secretion by enzyme immunoassay (Cayman Chemicals, Ann Arbor, Mich.). The ELISA was carried out in a 1:10 and 1:30 dilution. The assay was corrected for wet tissue weights and the prostaglandin ELISA kit sensitivity was 20 pg/ml.
# nitrite (nitric oxide) = assay: Nitrite release (Griess reaction) from organ cultured muscularis; format: in vivo, rat
# Experimental: as §1, §2
# Tissue culture and determination of nitrite and prostanoid release in supernatant: The rat small intestine and colon were processed for tissue culture at 24 hours as described previously, (N=5-8) (25). Briefly, the muscularis was isolated by stripping the muscularis from the mucosa and then cut into small pieces and washed twice in Hank's balanced salt solution (HBSS) with 100 U/ml penicillin G and 100 μg/ml streptomycin. Aliquots of muscularis ([…]) were incubated (37° C., 5% CO2) in 6-well tissue culture plates containing 3 ml of supplemented Dulbecco's modified Eagle medium (DMEM)-F12 with 100 U/ml penicillin G and 100 μg/ml streptomycin. After an incubation period of 24 hours, 500 μl aliquots of supernatant were collected, frozen in liquid nitrogen and stored at −80° C. The muscle tissue was blotted dry, and the weight was estimated. To estimate the generation of NO from the intestinal muscularis, nitrite production was measured by the Griess reaction (44). Supernatant from the tissue culture was mixed with equal amount of Griess reagent (0.1% N-(1-naphtyl)ethyl-enediamine dihydrochloride and 1% sulfanilamide in 6% phosphoric acid; 1:1) and incubated at room temperature for 10 minutes. The absorbance at 550 nm was measured with a microplate reader and compared with standard prepared from serial dilutions of sodium nitrite. Each standard and supernatant sample was analyzed in duplicate, and the mean value of nitrite production was normalized to the tissue weight.
# as §3
# [2] = tested on: C57Bl/6 mice with surgical manipulation (SM); conditions: SM+glycine 170 mg/kg, control=11.0±0.44, SM=4.1±0.18, SM+saline=4.1±0.5
# Experimental: as §1
smiles,measurement,setting,value
NCC(=O)O [glycine],postoperative intestinal transit,"[1]; Example 5, glycine (170 mg) i.v. 1 hour prior to surgery",ameliorated
same,geometric center (GC) of gastrointestinal transit,"[1]; surgically manipulated rats, 24 h postoperatively, i.v. pretreatment 1 h before surgery, glycine 170 mg/kg, valine 263.5 mg/kg, SM vehicle GC=5.2±0.7",8.5±0.7
same,"prostanoid release, fold of control, colon","prostanoids; colonic muscularis 24 h organ culture, SM 3.1-fold",0.7 fold
same,"prostanoid release, fold of control, jejunum","prostanoids; jejunal muscularis 24 h organ culture, SM 5.9-fold",0.9 fold
same,attenuation of postoperative increase in nitrite production,"nitrite (nitric oxide); Example 5, muscularis cultures, glycine (170 mg) i.v. 1 hour prior to surgery",39%
same,"nitrite release, fold increase over control, colon","nitrite (nitric oxide); manipulated rats, colonic muscularis 24 h organ culture, glycine 170 mg/kg or valine, SM vehicle 10.9-fold",2.5 fold
same,"nitrite release, fold increase over control, jejunum","nitrite (nitric oxide); manipulated rats, jejunal muscularis 24 h organ culture, glycine 170 mg/kg or valine, SM vehicle 11.4-fold",2.7 fold
same,Griess reaction measurements from the unmanipulated muscularis,"nitrite (nitric oxide); unmanipulated, glycine 170 mg/kg",no significant effects
same,geometric center of gastrointestinal transit,[2],10.3±7
